Test results published in ChEMBL document CHEMBL1201862, “PubChem BioAssay data set” (2004).
One block for each molecule: values may come before it. Calls of active or inactive are those of the source.

Legend:
Type in all cases: functional
[1] = target: Protein kinase C theta type (Homo sapiens, UniProt Q04759); assay: Navigating the Kinome. Panel member name: PRKCQ
[2] = target: Dual specificity protein kinase CLK2 (Homo sapiens, UniProt P49760)
[3] = target: Dual specificity mitogen-activated protein kinase kinase 1 (Homo sapiens, UniProt Q02750); assay: Navigating the Kinome. Panel member name: MAP2K1
[4] = target: Tyrosine-protein kinase JAK2 (Homo sapiens, UniProt O60674);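 note: JAK2 tested as one member of a kinase panel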
[5] = target: Serine/threonine-protein kinase TBK1 (Homo sapiens, UniProt Q9UHD2); assay: Navigating the Kinome. Panel member name: TBK1
[6] = target: 5'-AMP-activated protein kinase catalytic subunit alpha-1 (Homo sapiens, UniProt Q13131)
[7] = target: ALK tyrosine kinase receptor (Homo sapiens, UniProt Q9UM73);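 note: ALK tested as one member of a kinase panel screen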
[8] = target: Proto-oncogene tyrosine-protein kinase receptor Ret (Homo sapiens, UniProt P07949);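 note: measured within a kinome-wide profiling panel, RET as the panel member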
[9] = target: Tyrosine-protein kinase receptor TYRO3 (Homo sapiens, UniProt Q06418);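 note: TYRO3 value obtained as one member of a kinome-wide profiling panel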
[10] = target: Serine/threonine-protein kinase D3 (Homo sapiens, UniProt O94806);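 note: determined within a kinase panel screen, with PRKCN as the panel member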
[11] = target: Death-associated protein kinase 3 (Homo sapiens, UniProt O43293);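 note: measured as one member of a kinome-wide profiling panel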
[12] = target: Activin receptor type-1 (Homo sapiens, UniProt Q04771); assay: Navigating the Kinome. Panel member name: ACVR1
[13] = target: Mitogen-activated protein kinase 8 (Homo sapiens, UniProt P45983);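 note: value comes from one member of a kinome-wide kinase profiling panel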
[14] = target: Serine/threonine-protein kinase pim-1 (Homo sapiens, UniProt P11309)
[15] = target: Aurora kinase A (Homo sapiens, UniProt O14965);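 note: value from the Navigating the Kinome kinase panel profiling, panel entry STK6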
[16] = target: Tyrosine-protein kinase BTK (Homo sapiens, UniProt Q06187)
[17] = target: Serine/threonine-protein kinase PAK 4 (Homo sapiens, UniProt O96013);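 note: value obtained within a kinome profiling panel in which PAK4 was one of the panel members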
[18] = target: Fibroblast growth factor receptor 1 (Homo sapiens, UniProt P11362)
[19] = target: Tyrosine-protein kinase JAK3 (Homo sapiens, UniProt P52333)
[20] = target: Mitogen-activated protein kinase 9 (Homo sapiens, UniProt P45984);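 note: value from a kinome panel profiling assay, MAPK9 panel entry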
[21] = target: LIM domain kinase 1 (Homo sapiens, UniProt P53667); assay: Navigating the Kinome. Panel member name: LIMK1
[22] = target: Serine/threonine-protein kinase TAO1 (Homo sapiens, UniProt Q7L7X3)
[23] = target: High affinity nerve growth factor receptor (Homo sapiens, UniProt P04629);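 note: NTRK1 tested as one member of a kinome-wide profiling panel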
[24] = target: Glycogen synthase kinase-3 alpha (Homo sapiens, UniProt P49840);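 note: GSK3A result taken from a broad kinome-wide kinase panel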
[25] = target: Mitogen-activated protein kinase kinase kinase kinase 2 (Homo sapiens, UniProt Q12851);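 note: measured as one member of a kinome-wide kinase panel, with MAP4K2 as the panel entry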
[26] = target: Hepatocyte growth factor receptor (Homo sapiens, UniProt P08581);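 note: kinase panel profiling across the kinome, with MET as the panel member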
[27] = target: Activated CDC42 kinase 1 (Homo sapiens, UniProt Q07912); assay: Navigating the Kinome. Panel member name: ACK1
[28] = target: Receptor-type tyrosine-protein kinase FLT3 (Homo sapiens, UniProt P36888);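 note: FLT3 was tested as one member of a kinome-wide kinase panel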
[29] = target: Serine/threonine-protein kinase Chk1 (Homo sapiens, UniProt O14757);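 note: measured as one member of a kinome-wide kinase profiling panel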
[30] = target: Tyrosine-protein kinase ABL1 (Homo sapiens, UniProt P00519)
[31] = target: Vascular endothelial growth factor receptor 2 (Homo sapiens, UniProt P35968)
[32] = target: G protein-coupled receptor kinase 5 (Homo sapiens, UniProt P34947); assay: Navigating the Kinome. Panel member name: GPRK5
[33] = target: Cyclin-dependent kinase 5 (Homo sapiens, UniProt Q00535);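 note: CDK5 measured as one member of a kinase profiling panel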
[34] = target: Insulin-like growth factor 1 receptor (Homo sapiens, UniProt P08069); assay: Navigating the Kinome. Panel member name: IGF1R
[35] = target: Dual specificity tyrosine-phosphorylation-regulated kinase 1B (Homo sapiens, UniProt Q9Y463); assay: Navigating the Kinome. Panel member name: DYRK1B
[36] = target: cAMP-dependent protein kinase catalytic subunit PRKX (Homo sapiens, UniProt P51817)
[37] = target: Platelet-derived growth factor receptor alpha (Homo sapiens, UniProt P16234); assay: Navigating the Kinome. Panel member name: PDGFRA
[38] = target: Leucine-rich repeat serine/threonine-protein kinase 2 (Homo sapiens, UniProt Q5S007);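 note: value from a broad kinome-wide panel profiling study in which LRRK2 was one of the kinases tested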
[39] = target: Aurora kinase B (Homo sapiens, UniProt Q96GD4)
[40] = target: Rho-associated protein kinase 1 (Homo sapiens, UniProt Q13464);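 note: measured within a broad kinome-wide panel profiling many kinases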
[41] = target: Tyrosine-protein kinase Fyn (Homo sapiens, UniProt P06241)
[42] = target: Cyclin-dependent kinase 8 (Homo sapiens, UniProt P49336); assay: Navigating the Kinome. Panel member name: CDK8
[43] = target: Cyclin-dependent kinase 7 (Homo sapiens, UniProt P50613);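 note: value comes from a kinome-wide kinase profiling panel in which CDK7 is one member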
[44] = target: Vascular endothelial growth factor receptor 1 (Homo sapiens, UniProt P17948);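 note: measured within a kinome-wide profiling panel, FLT1 as the panel member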
[45] = target: Glycogen synthase kinase-3 beta (Homo sapiens, UniProt P49841);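 note: value comes from a broad kinome profiling panel, with GSK3B as the panel member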
[46] = target: Cyclin-dependent kinase 9 (Homo sapiens, UniProt P50750);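 note: value from the CDK9 entry of a kinome-spanning kinase panel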
[47] = target: BDNF/NT-3 growth factors receptor (Homo sapiens, UniProt Q16620);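 note: NTRK2 measured as one member of a broad kinome-wide kinase profiling panel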
[48] = target: cAMP-dependent protein kinase catalytic subunit alpha (Homo sapiens, UniProt P17612)
[49] = target: Dual specificity protein kinase CLK4 (Homo sapiens, UniProt Q9HAZ1)
[50] = target: Macrophage-stimulating protein receptor (Homo sapiens, UniProt Q04912); assay: Navigating the Kinome. Panel member name: MST1R
[51] = target: Macrophage colony-stimulating factor 1 receptor (Homo sapiens, UniProt P07333);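 note: value comes from the Navigating the Kinome screening panel, CSF1R member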
[52] = target: Dual specificity mitogen-activated protein kinase kinase 2 (Homo sapiens, UniProt P36507); assay: Navigating the Kinome. Panel member name: MAP2K2
[53] = target: Dual specificity tyrosine-phosphorylation-regulated kinase 1A (Homo sapiens, UniProt Q13627);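 note: measured against DYRK1A as one member of a broad kinome profiling panel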
[54] = target: Inhibitor of nuclear factor kappa-B kinase subunit epsilon (Homo sapiens, UniProt Q14164); assay: Navigating the Kinome. Panel member name: IKBKE
[55] = target: Calcium/calmodulin-dependent protein kinase type II subunit alpha (Homo sapiens, UniProt Q9UQM7); assay: Navigating the Kinome. Panel member name: CAMK2A
[56] = target: Leukocyte tyrosine kinase receptor (Homo sapiens, UniProt P29376); assay: Navigating the Kinome. Panel member name: LTK
[57] = target: Mitogen-activated protein kinase 14 (Homo sapiens, UniProt Q16539);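 note: part of a kinome-wide panel, MAPK14 entry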
[58] = target: Melanin-concentrating hormone receptor 1 (Homo sapiens, UniProt Q99705); assay: Late-stage fluorescence-based counterscreen for antagonists of the G-protein coupled receptor 7 (GPR7): cell-based dose response assay to identify antagonists of the melanin-concentrating hormone receptor 1 (MCHR1) Set 6.
[59] = target: Neuropeptides B/W receptor type 1 (Homo sapiens, UniProt P48145); assay: GPR7 antagonist potency, late-stage follow-up, cell-based, fluorescence, dose response, set 6 (AID 588583)
[60] = target: MAP kinase-activated protein kinase 2 (Homo sapiens, UniProt P49137);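 note: measured as one member of a kinome-wide kinase panel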
[61] = target: Cyclin-dependent kinase 1 (Homo sapiens, UniProt P06493);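 note: Kinome-wide panel profiling, with the target listed as panel member CDC2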
[62] = target: Serine/threonine-protein kinase PLK1 (Homo sapiens, UniProt P53350);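 note: PLK1 measured as one member of a kinome-wide profiling panel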

Chain of Serine/threonine-protein kinase pim-1 (P11309 whole entry): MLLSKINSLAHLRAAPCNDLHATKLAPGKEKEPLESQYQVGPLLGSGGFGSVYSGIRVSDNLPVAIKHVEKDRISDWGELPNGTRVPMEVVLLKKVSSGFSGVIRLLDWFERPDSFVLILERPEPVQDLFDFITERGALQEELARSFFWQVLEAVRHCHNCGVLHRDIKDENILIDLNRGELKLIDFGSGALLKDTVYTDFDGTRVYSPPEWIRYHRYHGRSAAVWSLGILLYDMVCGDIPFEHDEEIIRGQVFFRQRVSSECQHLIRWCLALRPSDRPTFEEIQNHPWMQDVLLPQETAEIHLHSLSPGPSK
Chain of Glycogen synthase kinase-3 alpha (P49840 whole entry): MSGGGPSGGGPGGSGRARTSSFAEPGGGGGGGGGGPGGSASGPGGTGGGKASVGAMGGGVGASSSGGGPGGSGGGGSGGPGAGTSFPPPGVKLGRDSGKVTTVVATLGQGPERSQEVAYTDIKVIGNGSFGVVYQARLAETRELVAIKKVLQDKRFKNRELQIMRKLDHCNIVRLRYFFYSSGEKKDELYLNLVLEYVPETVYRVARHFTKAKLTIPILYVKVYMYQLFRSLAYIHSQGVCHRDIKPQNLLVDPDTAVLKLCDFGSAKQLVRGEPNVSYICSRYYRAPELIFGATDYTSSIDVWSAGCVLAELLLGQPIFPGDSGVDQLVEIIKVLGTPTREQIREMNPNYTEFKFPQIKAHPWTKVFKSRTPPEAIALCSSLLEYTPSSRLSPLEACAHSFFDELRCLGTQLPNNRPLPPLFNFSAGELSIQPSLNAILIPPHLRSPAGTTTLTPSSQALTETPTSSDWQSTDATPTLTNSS
Chain of Aurora kinase B (Q96GD4 whole entry): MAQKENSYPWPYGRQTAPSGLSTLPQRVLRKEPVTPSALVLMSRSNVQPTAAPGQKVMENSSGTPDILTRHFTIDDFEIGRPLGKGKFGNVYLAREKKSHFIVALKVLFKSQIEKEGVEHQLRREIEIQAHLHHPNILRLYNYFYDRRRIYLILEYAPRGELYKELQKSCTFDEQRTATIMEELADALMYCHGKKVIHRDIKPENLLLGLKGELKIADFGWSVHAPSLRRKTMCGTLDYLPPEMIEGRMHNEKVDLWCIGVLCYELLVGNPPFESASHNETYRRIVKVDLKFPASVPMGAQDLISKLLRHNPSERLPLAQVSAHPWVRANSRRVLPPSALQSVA
Chain of Macrophage colony-stimulating factor 1 receptor (P07333 whole entry): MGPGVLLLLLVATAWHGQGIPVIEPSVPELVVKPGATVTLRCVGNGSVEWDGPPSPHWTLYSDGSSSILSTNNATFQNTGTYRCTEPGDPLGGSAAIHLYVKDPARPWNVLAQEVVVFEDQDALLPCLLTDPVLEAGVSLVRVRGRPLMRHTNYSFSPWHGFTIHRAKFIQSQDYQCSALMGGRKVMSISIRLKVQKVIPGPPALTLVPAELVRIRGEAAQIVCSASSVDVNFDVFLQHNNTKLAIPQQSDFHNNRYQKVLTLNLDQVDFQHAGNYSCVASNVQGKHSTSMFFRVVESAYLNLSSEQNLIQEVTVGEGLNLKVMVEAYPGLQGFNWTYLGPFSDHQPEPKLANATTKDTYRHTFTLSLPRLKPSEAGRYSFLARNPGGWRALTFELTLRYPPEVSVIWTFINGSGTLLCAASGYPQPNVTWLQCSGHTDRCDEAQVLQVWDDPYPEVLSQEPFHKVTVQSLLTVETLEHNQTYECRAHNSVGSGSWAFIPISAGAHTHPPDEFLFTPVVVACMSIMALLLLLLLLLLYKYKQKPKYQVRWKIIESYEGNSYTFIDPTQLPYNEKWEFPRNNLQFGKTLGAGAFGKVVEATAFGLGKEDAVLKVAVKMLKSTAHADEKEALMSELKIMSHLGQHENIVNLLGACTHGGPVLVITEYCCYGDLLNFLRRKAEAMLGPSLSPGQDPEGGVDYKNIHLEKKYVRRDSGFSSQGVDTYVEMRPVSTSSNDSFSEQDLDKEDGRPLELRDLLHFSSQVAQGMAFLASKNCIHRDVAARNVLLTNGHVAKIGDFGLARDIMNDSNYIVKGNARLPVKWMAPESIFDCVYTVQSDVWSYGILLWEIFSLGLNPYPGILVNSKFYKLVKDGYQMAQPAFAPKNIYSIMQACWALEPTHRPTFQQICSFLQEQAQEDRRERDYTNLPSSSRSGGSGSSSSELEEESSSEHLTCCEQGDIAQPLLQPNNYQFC
Chain of Proto-oncogene tyrosine-protein kinase receptor Ret (P07949 whole entry): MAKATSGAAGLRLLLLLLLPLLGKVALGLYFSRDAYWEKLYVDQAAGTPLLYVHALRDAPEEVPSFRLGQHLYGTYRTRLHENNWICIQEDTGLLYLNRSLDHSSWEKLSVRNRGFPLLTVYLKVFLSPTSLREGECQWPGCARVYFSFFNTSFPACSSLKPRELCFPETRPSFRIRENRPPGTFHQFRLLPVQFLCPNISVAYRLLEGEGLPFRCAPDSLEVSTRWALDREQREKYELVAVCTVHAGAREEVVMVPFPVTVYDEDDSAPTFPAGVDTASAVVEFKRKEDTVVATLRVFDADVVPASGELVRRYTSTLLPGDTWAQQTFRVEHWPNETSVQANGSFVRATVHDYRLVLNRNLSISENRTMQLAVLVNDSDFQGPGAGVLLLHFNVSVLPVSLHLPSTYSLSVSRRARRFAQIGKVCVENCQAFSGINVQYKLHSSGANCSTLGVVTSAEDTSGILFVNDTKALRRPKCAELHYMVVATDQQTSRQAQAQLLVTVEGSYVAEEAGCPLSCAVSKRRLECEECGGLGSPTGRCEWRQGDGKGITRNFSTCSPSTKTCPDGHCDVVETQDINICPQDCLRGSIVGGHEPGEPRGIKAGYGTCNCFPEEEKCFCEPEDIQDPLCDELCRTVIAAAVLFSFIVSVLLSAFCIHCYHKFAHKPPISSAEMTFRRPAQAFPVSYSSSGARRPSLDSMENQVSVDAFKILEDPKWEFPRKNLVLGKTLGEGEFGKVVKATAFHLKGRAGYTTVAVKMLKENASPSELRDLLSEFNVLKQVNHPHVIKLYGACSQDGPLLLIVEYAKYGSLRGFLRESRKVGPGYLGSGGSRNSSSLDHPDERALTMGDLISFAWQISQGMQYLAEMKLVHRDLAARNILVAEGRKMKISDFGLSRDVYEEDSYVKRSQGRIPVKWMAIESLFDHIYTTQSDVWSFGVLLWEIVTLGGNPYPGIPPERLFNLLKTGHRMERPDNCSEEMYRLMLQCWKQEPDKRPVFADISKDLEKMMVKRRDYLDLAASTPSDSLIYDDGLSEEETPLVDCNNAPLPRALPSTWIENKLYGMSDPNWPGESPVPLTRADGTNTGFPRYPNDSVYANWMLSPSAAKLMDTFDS
Chain of Cyclin-dependent kinase 9 (P50750 whole entry): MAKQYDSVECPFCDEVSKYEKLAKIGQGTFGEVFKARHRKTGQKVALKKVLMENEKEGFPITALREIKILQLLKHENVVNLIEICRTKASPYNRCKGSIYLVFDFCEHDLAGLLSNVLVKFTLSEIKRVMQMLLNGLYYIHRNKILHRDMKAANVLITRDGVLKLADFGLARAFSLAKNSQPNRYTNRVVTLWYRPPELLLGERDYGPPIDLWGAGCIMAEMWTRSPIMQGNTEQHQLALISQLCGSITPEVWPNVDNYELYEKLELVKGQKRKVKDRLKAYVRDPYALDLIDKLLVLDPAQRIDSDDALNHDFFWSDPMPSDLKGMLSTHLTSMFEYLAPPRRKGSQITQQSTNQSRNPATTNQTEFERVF
Chain of Inhibitor of nuclear factor kappa-B kinase subunit epsilon (Q14164 whole entry): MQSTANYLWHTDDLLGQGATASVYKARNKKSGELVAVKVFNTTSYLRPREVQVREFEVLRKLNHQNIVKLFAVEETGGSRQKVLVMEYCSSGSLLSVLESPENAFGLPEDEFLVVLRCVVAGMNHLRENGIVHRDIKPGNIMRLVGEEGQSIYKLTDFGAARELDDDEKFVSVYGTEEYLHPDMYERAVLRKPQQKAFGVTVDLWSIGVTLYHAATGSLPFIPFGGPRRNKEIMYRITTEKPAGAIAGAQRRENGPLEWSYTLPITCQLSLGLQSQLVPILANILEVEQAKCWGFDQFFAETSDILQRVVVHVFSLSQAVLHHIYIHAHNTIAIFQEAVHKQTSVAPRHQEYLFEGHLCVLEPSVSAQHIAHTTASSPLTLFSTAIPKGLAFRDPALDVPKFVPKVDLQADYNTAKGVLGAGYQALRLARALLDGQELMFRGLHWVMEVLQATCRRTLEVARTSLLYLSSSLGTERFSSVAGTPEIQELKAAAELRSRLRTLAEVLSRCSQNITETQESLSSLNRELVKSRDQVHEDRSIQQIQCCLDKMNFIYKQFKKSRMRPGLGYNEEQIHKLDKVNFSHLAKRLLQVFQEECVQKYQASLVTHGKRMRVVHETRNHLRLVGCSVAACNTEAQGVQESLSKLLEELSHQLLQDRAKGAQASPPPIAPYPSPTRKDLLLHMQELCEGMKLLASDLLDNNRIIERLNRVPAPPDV
Chain of Tyrosine-protein kinase Fyn (P06241 whole entry): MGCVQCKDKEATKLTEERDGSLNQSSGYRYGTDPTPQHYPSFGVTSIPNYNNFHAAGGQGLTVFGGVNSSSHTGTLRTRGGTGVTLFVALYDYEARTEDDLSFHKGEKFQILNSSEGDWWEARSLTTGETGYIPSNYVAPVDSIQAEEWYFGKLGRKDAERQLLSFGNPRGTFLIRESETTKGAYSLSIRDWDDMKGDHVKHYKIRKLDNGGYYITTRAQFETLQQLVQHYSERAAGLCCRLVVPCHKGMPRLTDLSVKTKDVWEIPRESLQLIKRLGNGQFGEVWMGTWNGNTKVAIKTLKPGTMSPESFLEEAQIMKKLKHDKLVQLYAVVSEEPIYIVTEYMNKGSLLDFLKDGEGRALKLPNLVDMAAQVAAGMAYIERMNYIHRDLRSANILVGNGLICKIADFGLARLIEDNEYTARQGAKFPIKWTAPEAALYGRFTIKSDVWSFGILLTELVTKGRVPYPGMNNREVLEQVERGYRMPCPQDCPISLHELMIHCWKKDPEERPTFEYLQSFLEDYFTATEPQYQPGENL

Ki [1]: > 2.51 µM (inactive)
Ki [2]: > 3.98 µM (inactive)
Ki [3]: > 3.16 µM (inactive)
Ki [4]: > 2.51 µM (inactive)
Ki [5]: > 3.16 µM (inactive)
Ki [6]: > 3.16 µM (inactive)
Ki [7]: > 6.31 µM (inactive)
Ki [8]: > 3.16 µM (inactive)
Ki [9]: 0.501 µM (active)
Ki [10]: > 3.98 µM (inactive)
Ki [12]: 0.2 µM (active)
Ki [13]: 0.794 µM (active)
Ki [14]: > 6.31 µM (inactive)
Ki [15]: 0.398 µM (active)
Ki [16]: > 6.31 µM (inactive)
Ki [17]: > 5.01 µM (inactive)
Ki [18]: 2.51 µM (active)
Ki [19]: > 5.01 µM (inactive)
Ki [20]: 2.51 µM (active)
Ki [21]: > 3.16 µM (inactive)
Ki [22]: 2.51 µM (active)
Ki [23]: > 3.16 µM (inactive)
Ki [24]: 0.316 µM (active)
Ki [25]: > 2.51 µM (inactive)
Ki [26]: 2.51 µM (active)
Ki [27]: > 3.98 µM (inactive)
Ki [28]: 2.51 µM (active)
Ki [29]: > 3.16 µM (inactive)
Ki [30]: 0.501 µM (active)
Ki [31]: 1 µM (active)
Ki [32]: > 3.98 µM (inactive)
Ki [33]: 0.501 µM (active)
Ki [34]: > 2.51 µM (inactive)
Ki [35]: 0.794 µM (active)
Ki [36]: > 3.16 µM (inactive)
Ki [37]: > 2.51 µM (inactive)
Ki [38]: 0.631 µM (active)
Ki [39]: 0.794 µM (active)
Ki [40]: > 3.98 µM (inactive)
Ki [41]: > 6.31 µM (inactive)
Ki [42]: > 3.98 µM (inactive)
Ki [43]: > 3.98 µM (inactive)
Ki [44]: 3.16 µM (active)
Ki [45]: 0.398 µM (active)
Ki [46]: 0.0316 µM (active)
Ki [47]: 3.98 µM (active)
Ki [48]: > 1.26 µM (inactive)
Ki [49]: 0.501 µM (active)
Ki [50]: 3.98 µM (active)
Ki [51]: > 2.51 µM (inactive)
Ki [52]: > 3.98 µM (inactive)
Ki [53]: > 2 µM (inactive)
Ki [54]: > 3.16 µM (inactive)
Ki [55]: 1 µM (active)
Ki [56]: > 2.51 µM (inactive)
Ki [57]: > 3.98 µM (inactive)
SMILES: COc1ccccc1-c1ccnc(Nc2cccc(S(C)(=O)=O)c2)n1
Ki [11]: > 5.01 µM (inactive)

IC50 [58]: 3.17 µM (active)
IC50 [59]: 3.17 µM (active)
SMILES: COc1ccc(Oc2c(Cl)cnn(CC(=O)N(c3ccccc3)C(C)C)c2=O)cc1

Ki [14]: 5.01 µM (active)
Ki [60]: 2.51 µM (active)
Ki [24]: 7.94 µM (active)
Ki [39]: 1.58 µM (active)
Ki [61]: 2.51 µM (active)
Ki [62]: 7.94 µM (active)
SMILES: Cc1cccc(CNC(=O)c2cnn3c(-c4ccccc4)ccnc23)c1C
